{"source": "patent US20040167181A1", "about": "“Methods of treating conditions associated with an Edg-3 receptor” (priority 2003, published 2004)", "key": {"[1]": {"biological_target": "T1, human Edg-3 receptors (Homo sapiens, UniProt Q99500)", "T1 construct": "expressed in transfected cells; host or cells: HTC (rat hepatoma) cells", "T1 sequence (Q99500 whole entry)": "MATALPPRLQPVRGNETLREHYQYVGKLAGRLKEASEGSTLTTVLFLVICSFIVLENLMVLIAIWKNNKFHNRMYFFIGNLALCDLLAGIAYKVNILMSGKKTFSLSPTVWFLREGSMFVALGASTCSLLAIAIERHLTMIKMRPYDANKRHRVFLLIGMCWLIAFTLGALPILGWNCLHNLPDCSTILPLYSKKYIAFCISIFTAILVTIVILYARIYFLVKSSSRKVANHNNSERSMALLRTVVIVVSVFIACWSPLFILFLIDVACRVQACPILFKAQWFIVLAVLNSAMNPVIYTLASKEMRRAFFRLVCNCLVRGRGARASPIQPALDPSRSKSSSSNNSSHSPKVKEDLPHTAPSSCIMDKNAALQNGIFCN", "experiment": "Calcium response in HTC cells expressing human Edg-3 receptors", "format": "cell-based", "details": "HTC cells expressing human Edg-3 receptors (also tested in NIH 3T3 cell lines that naturally express Edg-3); FIG. 1", "from_the_text": "Specific assays for Edg-3 receptor activity are known to those of skill in the art. For example, cells expressing Edg-3 receptors can be contacted with a membrane-permeant calcium sensitive dye such as Fluo-4 AM or a proprietary calcium dye loading kit (e.g., FLIPR Calcium Assay kit, Molecular Devices, Sunnyvale, Calif.). Intracellular calcium is capable of binding to the dye and emitting fluorescent radiation when illuminated at the appropriate wavelength. The cells can thus be illuminated an appropriate wavelength for the dye and any emitting light can be captured by a cooled CCD camera. Changes in fluorescence indicate changes in intracellular calcium resulting from the activation of an Edg-3 receptor. Such changes can be measured advantageously in whole cells in “real-time” (Berridge et al., Nature Reviews 2000, 1:11-21).\nThe compounds were tested in HTC cells expressing human Edg-3 receptors, as well as in NIH 3T3 cell lines that naturally express Edg-3 receptors. […] The compounds are tested in this recombinant system first, and subsequently tested in cell lines expressing Edg-3 (in addition to other Edg receptors)."}, "[2]": {"biological_target": "T2, Edg-2 (Homo sapiens, UniProt Q92633)", "T2 construct": "expressed in transfected cells; host or cells: HTC (rat hepatoma) cells", "T2 sequence (Q92633 whole entry)": "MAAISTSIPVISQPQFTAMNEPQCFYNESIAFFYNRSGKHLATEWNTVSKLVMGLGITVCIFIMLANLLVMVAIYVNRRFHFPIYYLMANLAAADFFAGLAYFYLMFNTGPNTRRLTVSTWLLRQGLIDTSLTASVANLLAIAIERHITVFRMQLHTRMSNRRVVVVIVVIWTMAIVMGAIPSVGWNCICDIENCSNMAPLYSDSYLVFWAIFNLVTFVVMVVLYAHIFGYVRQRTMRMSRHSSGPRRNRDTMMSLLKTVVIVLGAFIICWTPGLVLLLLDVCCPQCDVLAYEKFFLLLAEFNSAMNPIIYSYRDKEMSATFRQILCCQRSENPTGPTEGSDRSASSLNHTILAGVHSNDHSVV", "experiment": "LPA-stimulated calcium increases in HTC cells expressing Edg-2", "format": "cell-based", "details": "concentrations as high as 10 μM"}, "[3]": {"biological_target": "T3, Edg-4 (Homo sapiens, UniProt Q9HBW0)", "T3 construct": "expressed in transfected cells; host or cells: HTC (rat hepatoma) cells", "T3 sequence (Q9HBW0 whole entry, species assumed)": "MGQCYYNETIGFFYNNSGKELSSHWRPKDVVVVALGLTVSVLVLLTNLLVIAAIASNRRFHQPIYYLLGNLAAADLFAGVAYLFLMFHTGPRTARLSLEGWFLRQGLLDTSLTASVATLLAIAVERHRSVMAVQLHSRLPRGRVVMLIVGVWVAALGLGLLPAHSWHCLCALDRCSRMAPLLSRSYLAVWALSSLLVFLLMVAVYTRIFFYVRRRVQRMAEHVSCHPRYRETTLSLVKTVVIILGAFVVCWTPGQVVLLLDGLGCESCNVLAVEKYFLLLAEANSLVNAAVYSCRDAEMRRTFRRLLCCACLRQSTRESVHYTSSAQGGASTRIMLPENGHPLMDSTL", "experiment": "LPA-stimulated calcium increases in HTC cells expressing Edg-4", "format": "cell-based", "details": "concentrations as high as 10 μM"}, "[4]": {"biological_target": "T4, Edg-7 (Homo sapiens, UniProt Q9UBY5)", "T4 construct": "expressed in transfected cells; host or cells: HTC (rat hepatoma) cells", "T4 sequence (Q9UBY5 1-353)": "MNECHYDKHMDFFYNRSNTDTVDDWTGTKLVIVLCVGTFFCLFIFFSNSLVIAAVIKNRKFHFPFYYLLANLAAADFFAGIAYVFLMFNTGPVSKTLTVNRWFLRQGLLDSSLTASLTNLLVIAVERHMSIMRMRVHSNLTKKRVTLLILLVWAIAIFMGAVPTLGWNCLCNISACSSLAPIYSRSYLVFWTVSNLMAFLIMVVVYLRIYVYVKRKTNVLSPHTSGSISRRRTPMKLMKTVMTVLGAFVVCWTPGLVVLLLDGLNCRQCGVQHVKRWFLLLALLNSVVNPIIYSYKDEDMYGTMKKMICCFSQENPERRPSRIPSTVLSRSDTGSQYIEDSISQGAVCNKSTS", "experiment": "LPA-stimulated calcium increases in HTC cells expressing Edg-7", "format": "cell-based", "details": "concentrations as high as 10 μM"}, "[5]": {"biological_target": "T5, Edg-1 (Homo sapiens, UniProt P21453)", "T5 construct": "expressed in transfected cells; host or cells: HTC (rat hepatoma) cells", "T5 sequence (P21453 whole entry)": "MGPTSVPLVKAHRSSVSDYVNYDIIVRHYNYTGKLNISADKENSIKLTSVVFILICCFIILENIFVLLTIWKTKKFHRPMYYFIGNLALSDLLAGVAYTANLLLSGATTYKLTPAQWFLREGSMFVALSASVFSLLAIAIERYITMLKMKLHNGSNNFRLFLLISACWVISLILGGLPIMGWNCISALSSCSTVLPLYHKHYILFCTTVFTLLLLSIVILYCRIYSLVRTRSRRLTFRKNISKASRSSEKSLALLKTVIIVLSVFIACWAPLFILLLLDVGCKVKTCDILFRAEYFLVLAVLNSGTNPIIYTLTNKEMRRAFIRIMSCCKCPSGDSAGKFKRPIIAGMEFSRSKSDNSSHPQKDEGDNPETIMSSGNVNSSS", "experiment": "S1P-stimulated calcium increases in HTC cells expressing Edg-1", "format": "cell-based", "details": "concentrations as high as 10 μM"}, "[6]": {"biological_target": "T6, Edg-5 (Homo sapiens, UniProt O95136)", "T6 construct": "expressed in transfected cells; host or cells: HTC (rat hepatoma) cells", "T6 sequence (O95136 whole entry, species assumed)": "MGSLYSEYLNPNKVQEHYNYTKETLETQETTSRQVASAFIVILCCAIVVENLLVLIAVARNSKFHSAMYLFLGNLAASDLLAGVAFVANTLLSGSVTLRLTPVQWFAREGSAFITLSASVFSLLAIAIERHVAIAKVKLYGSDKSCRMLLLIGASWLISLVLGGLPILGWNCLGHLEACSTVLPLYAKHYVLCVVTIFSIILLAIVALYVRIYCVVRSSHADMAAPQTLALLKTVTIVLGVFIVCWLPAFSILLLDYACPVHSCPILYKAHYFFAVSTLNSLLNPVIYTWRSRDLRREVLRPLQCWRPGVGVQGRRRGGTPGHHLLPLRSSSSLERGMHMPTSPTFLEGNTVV", "experiment": "S1P-stimulated calcium increases in HTC cells expressing Edg-5", "format": "cell-based", "details": "concentrations as high as 10 μM"}, "[7]": {"biological_target": "T7, Edg-6 (Homo sapiens, UniProt O95977)", "T7 construct": "expressed in transfected cells; host or cells: HTC (rat hepatoma) cells", "T7 sequence (O95977 1-384)": "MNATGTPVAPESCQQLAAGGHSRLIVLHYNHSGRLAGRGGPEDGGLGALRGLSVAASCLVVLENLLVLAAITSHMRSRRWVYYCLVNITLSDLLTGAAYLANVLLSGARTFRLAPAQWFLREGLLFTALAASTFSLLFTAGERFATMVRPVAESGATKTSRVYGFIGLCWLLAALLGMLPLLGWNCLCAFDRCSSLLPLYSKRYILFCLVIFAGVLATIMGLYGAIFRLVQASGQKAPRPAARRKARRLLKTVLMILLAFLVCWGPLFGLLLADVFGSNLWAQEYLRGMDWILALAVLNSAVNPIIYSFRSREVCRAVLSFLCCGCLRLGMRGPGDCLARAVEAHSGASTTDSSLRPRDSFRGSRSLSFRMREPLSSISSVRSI", "experiment": "S1P-stimulated calcium increases in HTC cells expressing Edg-6", "format": "cell-based", "details": "concentrations as high as 10 μM"}, "[8]": {"biological_target": "T8, Edg-8 (Homo sapiens, UniProt Q9H228)", "T8 construct": "expressed in transfected cells; host or cells: HTC (rat hepatoma) cells", "T8 sequence (Q9H228 whole entry, species assumed)": "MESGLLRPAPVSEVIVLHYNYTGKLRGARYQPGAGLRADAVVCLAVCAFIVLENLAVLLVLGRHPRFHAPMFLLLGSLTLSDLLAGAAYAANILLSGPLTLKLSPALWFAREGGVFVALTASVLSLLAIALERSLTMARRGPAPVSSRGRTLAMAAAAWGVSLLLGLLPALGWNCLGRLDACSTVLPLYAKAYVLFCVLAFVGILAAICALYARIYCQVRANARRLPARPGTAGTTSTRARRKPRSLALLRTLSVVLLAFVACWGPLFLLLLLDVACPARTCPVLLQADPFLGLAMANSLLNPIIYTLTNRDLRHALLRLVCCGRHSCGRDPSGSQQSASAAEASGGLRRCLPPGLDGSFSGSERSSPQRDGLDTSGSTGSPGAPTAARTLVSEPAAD", "experiment": "S1P-stimulated calcium increases in HTC cells expressing Edg-8", "format": "cell-based", "details": "concentrations as high as 10 μM"}, "[9]": {"system": "Adrenergic α1, non-selective", "experiment": "Radioligand binding assay, Adrenergic α1, non-selective", "details": "Wistar Rat brain; 0.25 nM 3H Prazosin; significance criteria ≦50% of max stimulation or inhibition", "protocol": "(§1) In order to test the selectivity of compounds, various radioligand binding assays were performed using numerous non-Edg receptor targets as listed below.\n(§2) A radioligand binding assay was performed using adrenergic α1 according to the method of Greengrass and Bremner 1979, Eur. J. Pharmacol. 55:323-326. A radioligand binding assay was performed using adrenergic α2 according to the method of Boyajian and Leslie, 1987, J. Pharmacol. Exp. Ther. 241:1092-1098. A radioligand binding assay was performed using adrenergic β according to the method of Feve et al., 1994, Proc. Natl. Acad. Sci. USA 91:5677-5681. A radioligand binding assay was performed using angiotensin AT2 according to the method of Whitebread et al., 1991, Biochem. Biophys. Res. Comm. 181:1365-1371. A radioligand binding assay was performed using calcium channel Type L, dihydropyridine according to the method of Ehlert et al., 1982, Life Sci. 30:2191-2202. A radioligand binding assay was performed using dopamine D2L according to the method of Bunzo et al., 1988, Nature 336:783-787. A radioligand binding assay was performed using endothelin ETA according to the method of Mihara et al., 1994, J. Pharmacol. Exp Ther. 268:1122-1127. A radioligand binding assay was performed using histamine H1 Central according to the method of Hill et al., 1978, J. Neurochem. 31:997-1004. […]\n(§3) Quantitation Method: Radioligand Binding […]"}, "[10]": {"system": "Adrenergic α2", "experiment": "Radioligand binding assay, Adrenergic α2", "details": "Wistar rat cerebral cortex; 0.7 nM 3H Rauwolscine; significance criteria ≦50% of max stimulation or inhibition", "protocol": "as §1, §2, §3"}, "[11]": {"system": "Adrenergic β", "experiment": "Radioligand binding assay, Adrenergic β", "details": "Wistar rat brain; 0.25 nM 3H Dihydroaplenolol; significance criteria ≦50% of max stimulation or inhibition", "protocol": "as §1, §2, §3"}, "[12]": {"biological_target": "T9, Angiotensin AT2 (Homo sapiens, UniProt P50052)", "T9 construct": "expressed in transfected cells; host or cells: Hela cells", "T9 sequence (P50052 1-363)": "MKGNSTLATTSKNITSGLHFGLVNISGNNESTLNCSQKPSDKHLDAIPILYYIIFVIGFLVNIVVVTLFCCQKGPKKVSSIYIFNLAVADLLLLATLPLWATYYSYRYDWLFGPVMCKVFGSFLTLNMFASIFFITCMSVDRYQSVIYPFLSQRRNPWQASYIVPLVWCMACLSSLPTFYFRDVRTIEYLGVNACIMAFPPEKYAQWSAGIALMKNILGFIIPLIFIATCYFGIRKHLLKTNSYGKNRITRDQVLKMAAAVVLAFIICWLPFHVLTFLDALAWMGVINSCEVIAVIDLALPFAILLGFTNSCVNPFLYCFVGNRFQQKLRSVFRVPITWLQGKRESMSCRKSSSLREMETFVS", "experiment": "Radioligand binding assay, Angiotensin AT2", "details": "Human recombinant Hela cells; 0.025 nM 125I CGP-42112A; significance criteria ≦50% of max stimulation or inhibition", "protocol": "as §1, §2, §3"}, "[13]": {"system": "Calcium Channel Type L, Dihydropyridine", "experiment": "Radioligand binding assay, Calcium Channel Type L, Dihydropyridine", "details": "Wistar Rat cerebral cortex; 0.1 nM 3H Nitrendipine; significance criteria ≦50% of max stimulation or inhibition", "protocol": "as §1, §2, §3"}, "[14]": {"biological_target": "T10, Dopamine D2L (Homo sapiens, UniProt P14416)", "T10 construct": "expressed in transfected cells; host or cells: CHO cells", "T10 sequence (P14416 whole entry)": "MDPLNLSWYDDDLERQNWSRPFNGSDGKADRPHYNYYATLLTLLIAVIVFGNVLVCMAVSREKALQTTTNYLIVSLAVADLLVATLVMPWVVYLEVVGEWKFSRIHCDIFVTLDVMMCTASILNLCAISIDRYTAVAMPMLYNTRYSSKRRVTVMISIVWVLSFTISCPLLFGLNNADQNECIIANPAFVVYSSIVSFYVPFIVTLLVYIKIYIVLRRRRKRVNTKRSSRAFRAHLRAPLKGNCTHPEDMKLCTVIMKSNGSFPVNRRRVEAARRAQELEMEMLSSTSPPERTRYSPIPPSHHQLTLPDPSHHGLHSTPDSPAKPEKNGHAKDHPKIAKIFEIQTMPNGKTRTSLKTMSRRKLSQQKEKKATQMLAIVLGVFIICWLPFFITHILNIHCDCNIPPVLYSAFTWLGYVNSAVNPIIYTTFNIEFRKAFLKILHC", "experiment": "Radioligand binding assay, Dopamine D2L", "details": "Human recombinant CHO cells; 0.16 nM 3H Spiperone; significance criteria ≦50% of max stimulation or inhibition", "protocol": "as §1, §2, §3"}, "[15]": {"biological_target": "T11, Endothelin ETA (Homo sapiens, UniProt P25101)", "T11 construct": "expressed in transfected cells; host or cells: CHO cells", "T11 sequence (P25101 21-427)": "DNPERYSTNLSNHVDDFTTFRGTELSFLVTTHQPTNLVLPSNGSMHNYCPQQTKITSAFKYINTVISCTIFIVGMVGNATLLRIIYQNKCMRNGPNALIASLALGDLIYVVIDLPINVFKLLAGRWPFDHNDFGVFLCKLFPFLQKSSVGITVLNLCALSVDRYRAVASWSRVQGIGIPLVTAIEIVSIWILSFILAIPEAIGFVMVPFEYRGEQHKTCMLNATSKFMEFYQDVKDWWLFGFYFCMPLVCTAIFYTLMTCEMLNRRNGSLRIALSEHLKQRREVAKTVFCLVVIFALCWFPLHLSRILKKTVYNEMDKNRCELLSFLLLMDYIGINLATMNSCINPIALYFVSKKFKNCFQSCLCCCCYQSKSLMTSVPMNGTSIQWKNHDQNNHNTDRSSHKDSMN", "experiment": "Radioligand binding assay, Endothelin ETA", "details": "Human recombinant CHO cells; 0.03 nM 125 Endothelin; significance criteria ≦50% of max stimulation or inhibition", "protocol": "as §1, §2, §3"}, "[16]": {"biological_target": "T12, Histamine H1, Central (Cavia porcellus, UniProt P31389)", "T12 construct": "from tissue; host or cells: Guinea pig cerebellum", "T12 sequence (P31389 whole entry)": "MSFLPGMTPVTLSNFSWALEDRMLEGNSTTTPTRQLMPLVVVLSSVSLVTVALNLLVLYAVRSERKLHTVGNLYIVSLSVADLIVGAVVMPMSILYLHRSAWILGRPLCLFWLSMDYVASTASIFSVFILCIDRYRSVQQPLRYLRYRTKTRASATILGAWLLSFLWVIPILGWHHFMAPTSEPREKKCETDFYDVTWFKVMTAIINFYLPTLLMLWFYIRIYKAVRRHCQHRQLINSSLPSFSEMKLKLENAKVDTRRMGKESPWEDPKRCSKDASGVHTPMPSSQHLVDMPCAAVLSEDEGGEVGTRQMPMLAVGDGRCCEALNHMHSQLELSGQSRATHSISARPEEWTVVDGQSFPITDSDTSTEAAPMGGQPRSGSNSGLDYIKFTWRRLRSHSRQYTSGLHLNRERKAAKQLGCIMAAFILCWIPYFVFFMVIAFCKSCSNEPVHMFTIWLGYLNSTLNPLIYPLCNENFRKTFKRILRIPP", "experiment": "Radioligand binding assay, Histamine H1, Central", "details": "Guinea pig cerebellum; 1.75 nM 3H Pyrilamine; significance criteria ≦50% of max stimulation or inhibition", "protocol": "as §1, §2, §3"}, "[17]": {"system": "Muscarinic non-selective, Central", "format": "binding", "details": "Wistar rat cerebral cortex; 0.29 nM 3H Quinuclidinyl benzilate; significance criteria ≦50% of max stimulation or inhibition"}, "[18]": {"system": "Serotonin 5-HT1, non-selective", "experiment": "Radioligand binding assay, Serotonin 5-HT1, non-selective", "details": "Wistar rat cerebral cortex; 2 nM 3H Serotonin (5-HT) Trifluoroacetate; significance criteria ≦50% of max stimulation or inhibition", "protocol": "as §1, §2, §3"}}, "note": "“Also recorded” adds a separate entry of the source.", "data": [{"smiles": "Cc1c(-c2ccccc2)nc2ccccc2c1C(=O)NCc1ccc(F)cc1", "note": "[Compound 101]", "values": [{"measurement": "inhibition of Edg-3 stimulated SP1 responses", "setting": "[1]", "result": "demonstrate inhibition; also recorded: specifically inhibit"}, {"measurement": "inhibition of LPA-stimulated calcium increases", "setting": "[2]", "result": "did not inhibit"}, {"measurement": "inhibition of LPA-stimulated calcium increases", "setting": "[3]", "result": "did not inhibit"}, {"measurement": "inhibition of LPA-stimulated calcium increases", "setting": "[4]", "result": "did not inhibit"}, {"measurement": "inhibition of S1P-stimulated calcium increases", "setting": "[5]", "result": "did not inhibit"}, {"measurement": "inhibition of S1P-stimulated calcium increases", "setting": "[6]", "result": "did not inhibit"}, {"measurement": "inhibition of S1P-stimulated calcium increases", "setting": "[7]", "result": "did not inhibit"}, {"measurement": "inhibition of S1P-stimulated calcium increases", "setting": "[8]", "result": "did not inhibit"}, {"measurement": "activity in radioligand binding assay", "setting": "[9]", "result": "no significant activity"}, {"measurement": "activity in radioligand binding assay", "setting": "[10]", "result": "no significant activity"}, {"measurement": "activity in radioligand binding assay", "setting": "[11]", "result": "no significant activity"}, {"measurement": "activity in radioligand binding assay", "setting": "[12]", "result": "no significant activity"}, {"measurement": "activity in radioligand binding assay", "setting": "[13]", "result": "no significant activity"}, {"measurement": "activity in radioligand binding assay", "setting": "[14]", "result": "no significant activity"}, {"measurement": "activity in radioligand binding assay", "setting": "[15]", "result": "no significant activity"}, {"measurement": "activity in radioligand binding assay", "setting": "[16]", "result": "no significant activity"}, {"measurement": "activity in radioligand binding assay", "setting": "[17]", "result": "no significant activity"}, {"measurement": "activity in radioligand binding assay", "setting": "[18]", "result": "no significant activity"}]}]}
